System: osteoclast formation
Assay: Inhibition rate of furan derivatives versus osteoclast formation (TRAP staining)
Assay type: cell-based, mice
Settings: TRAP-positive multinucleated cells, untreated control set as 100%
Procedure: First, bone marrow cells were isolated, as follow. After sacrificing 7-9 week female mice by cervical dislocation, femur and tibia were excised aseptically while removing attached soft tissues. After cutting both ends of long bones, 1 ml of an enzyme solution, containing 0.1% collagenase (Gibco), 0.05% trypsin and 0.5 mM EDTA (Gibco), was injected to the bone marrow cavity at one end using a syringe with a 26-guage needle, and bone marrow was then collected. After shaking the recovered bone marrow for 30 min, bone marrow cells were collected, and cultured in α-minimum essential medium (α-MEM) supplemented with 10% FBS for 24 hrs. Then, non-adherent cells were collected, which are osteoclast pregenitors, aliquotted onto culture plates at a density of 2×10^5 cells per well, and cultured for 8 days in α-MEM supplemented with 20 ng/ml of macrophage-colony stimulating factor (M-CSF, Peprotech, USA) and 30 ng/ml RANKL (Peprotech, USA). During the 8 days of culturing, the cells were treated with the Compound 1. Thereafter, osteoclast formation was investigated by fixing the cultured cells and then carrying out TRAP staining, as described in the following Experimental Example 2.2. In addition, resorption activity of osteoclasts was investigated by measuring the absorption area after removing osteoclasts in cultures in calcium phosphate-coated plates, as described in Experimental Example 2.3, below.
After cell culture, the adherent cells were washed with PBS, and TRAP staining was performed, as follows. After being fixed with citrate-acetate-formaldehyde for 5 min, the cells were incubated for 1 hr in acetate buffer (prewarmed at 37° C., pH 5.0) containing naphthol AS-BI phosphate, fast Garnet GBC and 7 mM tartrate buffer (pH 5.0). TRAP-positive multinucleated cells having 3 or more nuclei were considered as osteoclasts.
Osteoclast pregenitor cells were isolated, and their differentiation to mature osteoclasts was induced, according to the same method as in the Experimental Example 2-1, while treated with each of the furan derivatives of the present invention. According to the same method as in the Experimental Example 2-2, TRAP staining performed, and TRAP-positive multinucleated cells were counted. An inhibition rate of each furan derivative against osteoclast formation was expressed as percentage, wherein the number of stained cells in a control not treated the furan derivative was arbitrarily set as 100% (Tables 14 to 16).

O=C(Nc1cc(F)ccc1F)c1ccc(COc2cccc(Cl)c2)o1 [Compound 151]
Inhibition rate against osteoclast formation, % (0.1 μM): 0% | Inhibition rate against osteoclast formation, % (1 μM): 0%

O=C(Nc1cccc([N+](=O)[O-])c1)c1ccc(COc2ccc(I)cc2)o1 [Compound 191]
Inhibition rate against osteoclast formation, % (0.1 μM): 0% | Inhibition rate against osteoclast formation, % (1 μM): 0%

COC(=O)c1ccc(COc2ccc(I)cc2)o1 [Compound 79]
Inhibition rate against osteoclast formation, % (0.1 μM): 0% | Inhibition rate against osteoclast formation, % (1 μM): 0%

Cc1ccc(OCc2ccc(C(=O)Nc3ccc(F)c(F)c3)o2)cc1C [Compound 186]
Inhibition rate against osteoclast formation, % (0.1 μM): 0% | Inhibition rate against osteoclast formation, % (1 μM): 0%

O=Cc1ccc(COC(=O)Nc2ccc(Br)cc2)o1 [Compound 50]
Inhibition rate against osteoclast formation, % (0.1 μM): 0% | Inhibition rate against osteoclast formation, % (1 μM): 10% | Inhibition rate against osteoclast formation, % (10 μM): 0%

CCOc1ccccc1NC(=O)c1ccc(COc2ccc(Cl)cc2[N+](=O)[O-])o1 [Compound 144]
Inhibition rate against osteoclast formation, % (0.1 μM): 0%

CC(C)(C)NC(=O)c1ccc(COCC(F)(F)F)o1 [Compound 127]
Inhibition rate against osteoclast formation, % (0.1 μM): 0% | Inhibition rate against osteoclast formation, % (1 μM): 0%

Cc1cccc(C)c1NC(=O)c1ccc(COc2ccc(Cl)cc2)o1 [Compound 179]
Inhibition rate against osteoclast formation, % (0.1 μM): 0% | Inhibition rate against osteoclast formation, % (1 μM): 0%

COc1ccc(NC(=O)c2ccc(COc3ccc(F)cc3)o2)c([N+](=O)[O-])c1 [Compound 149]
Inhibition rate against osteoclast formation, % (0.1 μM): 0%

O=C(Oc1ccccc1)c1ccc(COc2ccccc2Cl)o1 [Compound 98]
Inhibition rate against osteoclast formation, % (0.1 μM): 0% | Inhibition rate against osteoclast formation, % (1 μM): 0%

NC(=O)c1ccc(NC(=O)c2ccc(COc3cc(Cl)ccc3Cl)o2)cc1 [Compound 148]
Inhibition rate against osteoclast formation, % (0.1 μM): 0%

COC(=O)c1ccc(CNc2ccccc2)o1 [Compound 89]
Inhibition rate against osteoclast formation, % (0.1 μM): 0% | Inhibition rate against osteoclast formation, % (1 μM): 0%

COc1ccc(NC(=O)c2ccc(COc3ccccc3Br)o2)c(OC)c1 [Compound 188]
Inhibition rate against osteoclast formation, % (0.1 μM): 0% | Inhibition rate against osteoclast formation, % (1 μM): 0% | Inhibition rate against osteoclast formation, % (10 μM): 7.6%

CCCc1ccc(OCc2ccc(C(=O)Nc3cc(Cl)ccc3Cl)o2)cc1 [Compound 170]
Inhibition rate against osteoclast formation, % (0.1 μM): 0% | Inhibition rate against osteoclast formation, % (1 μM): 0%

CC(C)(C)NC(=O)c1ccc(COc2ccccc2Br)o1 [Compound 129]
Inhibition rate against osteoclast formation, % (0.1 μM): 0% | Inhibition rate against osteoclast formation, % (1 μM): 0% | Inhibition rate against osteoclast formation, % (10 μM): 2.2%

O=C(O)c1ccc(COc2ccccc2Br)o1 [Compound 108]
Inhibition rate against osteoclast formation, % (0.1 μM): 0% | Inhibition rate against osteoclast formation, % (1 μM): 0%

COc1ccc(F)c(CC(=O)OCc2ccc(C=O)o2)c1 [Compound 42]
Inhibition rate against osteoclast formation, % (0.1 μM): 0%

CCN(CC)C(=O)c1ccc(COc2ccc(Cl)c(C)c2)o1 [Compound 123]
Inhibition rate against osteoclast formation, % (0.1 μM): 0% | Inhibition rate against osteoclast formation, % (1 μM): 6.9% | Inhibition rate against osteoclast formation, % (10 μM): 100%

O=C(c1ccc(COc2ccccc2Br)o1)N1CCCCCC1 [Compound 128]
Inhibition rate against osteoclast formation, % (1 μM): 0%

O=C(Nc1cccc(Br)c1)c1ccc(COc2ccc(F)cc2)o1 [Compound 140]
Inhibition rate against osteoclast formation, % (0.1 μM): 0% | Inhibition rate against osteoclast formation, % (1 μM): 0%

O=C(Nc1ccc(Br)cc1)c1ccc(COc2ccc(I)cc2)o1 [Compound 146]
Inhibition rate against osteoclast formation, % (0.1 μM): 0% | Inhibition rate against osteoclast formation, % (1 μM): 0%

COC(=O)c1ccc(CN(C)C)o1 [Compound 85]
Inhibition rate against osteoclast formation, % (0.1 μM): 0% | Inhibition rate against osteoclast formation, % (1 μM): 0%

O=Cc1ccc(COC(=O)Cc2ccc(F)cc2F)o1 [Compound 39]
Inhibition rate against osteoclast formation, % (0.1 μM): 0% | Inhibition rate against osteoclast formation, % (1 μM): 10%

O=C(O)c1ccc(COc2ccc(Br)cc2)o1 [Compound 103]
Inhibition rate against osteoclast formation, % (0.1 μM): 0% | Inhibition rate against osteoclast formation, % (1 μM): 0%
